Assay results from PMC5859730, “Dual targeting of the cancer antioxidant network with 1,4-naphthoquinone fused Gold(I) N-heterocyclic carbene complexes” (Chemical Science, 2017).
Several values for one entry are separate records, joined by “and”; a condition that tells them apart may be missing. Equal values may be shown once. Read-outs that look alike come from different tables or passages of the source.

Tests used:
PC-3 prostate = experiment: Cell proliferation (MTT assay) in PC-3 prostate cells; assay type: cell-based, human; details: Homo sapiens, Prostate cell; p53 null; Table 3
Description: (§1) Further anti-proliferation studies were carried out with complex 1 and its naphthoquinone component 4[H][Cl] using the following cell lines: A2780 ovarian (a wt-p53 cell line sensitive to platinum treatment), 2780CP ovarian (isogenic to A2780 but expressing multi-drug resistance (MDR)), and PC-3 prostate (p53 null) (Table 3).
(§2) Biological preparations and assays
(§3) Experimental compound preparation. Stock solutions of complexes 1–3, 4[H][Cl], auranofin (Tocris Bioscience 4600), and doxorubicin (Tocris Bioscience 2252) were dissolved in DMSO (2.5–10 mM, depending on the compound and its solubility), aliquoted, and stored at -80 °C prior to use.
(§4) Biological Materials and Cell Lines. Cell lines were obtained from the ATCC (A549 and PC-3) and Prof.
(§5) Zahid Siddik at M.D. Anderson Cancer Center (A2780 and A2780CP). Cell culture plastic ware (i.e. T-75 flasks, treated 6-well plates, treated 96-well plates, and cell scrapers) were obtained from Fisher Scientific. […]
(§6) were made. […] The medium was then removed, the resulting formazan was dissolved in […] DMSO and the respective absorbances were measured at 560–650 nm using a microplate reader (Molecular Devices, Sunnyvale, CA). Absorbance values were corrected for background and then normalized to wells containing untreated cells to allow for plate-to-plate comparisons. […]

A549 cells = experiment: Detection of intracellular ROS by flow cytometry (CM-H2DCFDA); assay type: cell-based, human; details: for Increase in intracellular ROS (fluorescence cell population shift): A549, 2.5 μM, 6 h incubation, CM-H2DCFDA; for Intracellular ROS increase, in words: A549, 0.625–2.5 μM, 6 h
[1] = system: DNA duplex (5'CCGCAGCCA3'/5'TGGCTGCGG3'); experiment: Thermal denaturation of a DNA duplex; assay type: binding; details: 1 molar equivalent, 5 μM complex and duplex
[2] = system: thioredoxin reductase (TrxR); details: 6 h exposure; for Inhibition of TrxR at higher concentrations: A549, 1.25–5.0 μM, lipoate reduction; for Inhibition of TrxR at low concentrations: A549, 0.1–0.6 μM, lipoate reduction over 180 min
Description: Briefly, plateau phase A549 cells were exposed to variable doses of complexes 1, 3, 4[H][Cl], a 2 : 1 molar ratio of 4[H][Cl] and 5 (cocktail), auranofin, and doxorubicin for 6 h. Post treatment, the live cells were monitored colorimetrically over 180 min for their ability to reduce lipoate (Fig. 8a).

[3] = Differential pulse voltammetry, quinone reduction potentials; assay type: physicochemical; details: DMSO, 0.1 M [N(nBu)4][PF6], 0.1 mM analyte, vs. SCE; for E 1/2 a (V) DPV: first reduction, semiquinone radical (NQ˙–); for E 1/2 b (V) DPV: second reduction, quinone dianion (NQ2–)
Description: A series of electrochemical analyses, including cyclic voltammetry (CV) and differential pulse voltammetry (DPV), were carried out with [NnBu4][PF6] in anhydrous dimethyl sulfoxide (DMSO) in order to evaluate electronic properties of compounds 1–3 and 4[H][Cl]. […] These electrochemical features were attributed to the reduction of the quinone moiety to first produce the semiquinone radical (NQ^–) and then produce the quinone dianion (NQ^2–) forms of compounds 1–3 and 4[H][Cl].[70],[71] The quinone reduction potential in 4[H][Cl] occurs at –0.38 V, the lowest of all the molecules studied, indicative of a positively charged imidazolium ring. The quinone couple at –0.42 V observed for compound 1 is ascribed to the presence of bis(NHC). The same wave in compound 3 appears at a more negative potential (–0.47 V), presumably due to greater trans effects excreted by quinone annulated NHC ligand than the metal-bound chloride. This analysis agrees well with the differences in the observed δ^13C (Au–Ccarbene) resonances for compounds 1 and 3. […]
mM) as referenced to SCE (internal standard Fc0/+, adjusted to 0.435 V vs. SCE).

2780CP ovarian = experiment: Cell proliferation (MTT assay) in 2780CP ovarian cells; assay type: cell-based, human; details: Homo sapiens; isogenic to A2780, multi-drug resistance; Table 3
Description: as §1, §2, §3, §4, §5, §6

A549 lung cancer cells [4] = experiment: Cell proliferation (MTT assay) in A549 lung cancer cells; assay type: cell-based, human; details: for Fold less potent than 1 in cell proliferation: A549
Description: To gauge the ability of each complex to inhibit cancer cell growth, A549 lung cancer cells were treated with 1–3, 4[H][Cl], doxorubicin, and auranofin in a dose responsive manner. Cellular vitality (i.e., mitochondrial reductase activity) was then quantified colorimetrically post treatment using 3-(4,5-dimethylthiazol-2-yl)-2,5-diphenyltetrazolium bromide (MTT assay) (Table 2, Fig. 5).
as §2, §3, §4
Zahid Siddik at M.D. Anderson Cancer Center (A2780 and A2780CP). Cell culture plastic ware (i.e. T-75 flasks, treated 6-well plates, treated 96-well plates, and cell scrapers) were obtained from Fisher Scientific. Cell were cultured in RPMI 1640 culture medium (+2mM glutamine, +25mM HEPES, Corning 10041cv) supplemented with 10% heat-inactivated fetal bovine serum (RMBIO FBS-BBT) and 1X penicillin-streptomycin (Sigma p4333). Unless otherwise noted, incubators were set to 37°C and 5% CO2.
Trypsin (HyClone SH30236.01) and 1X Phosphate Buffered Saline (HyClone SH30258.02, diluted in autoclaved deionized water) were utilized for general cell line maintenance and harvesting. Trace Metal […]
Cell Proliferation Studies. Cells were harvested and seeded into 96-well culture plates (Costar 07-200-90) in 100µL of culture media. They were allowed to incubate overnight at 37 °C in the presence of 5% CO2. […]
and PC-3 at 2000 cells/well. […]
were made. To each well of a 96 well plate was added 100 µL of the appropriate solution. After a total of three days, a […] aliquot of 3 mg/mL tetrazolium dye, 3-(4,5-dimethylthiazol-2-yl)-2,5-diphenyltetrazolium bromide (Alfa Aesar L11939) was added to each well, followed by a 4 hr incubation period at 37 °C. The medium was then removed, the resulting formazan was dissolved in […] DMSO and the respective absorbances were measured at 560–650 nm using a microplate reader (Molecular Devices, Sunnyvale, CA). Absorbance values were corrected for background and then normalized to wells containing untreated cells to allow for plate-to-plate comparisons. The data are shown as mean inhibition of proliferation or growth as a percentage of control cells and are from 2–3 replicate experiments. Resulting dose response curves were subjected to linear regression analysis (Origin by OriginLab, Inc.) for determination of IC50 values.

A2780 ovarian = experiment: Cell proliferation (MTT assay) in A2780 ovarian cells; assay type: cell-based, human; details: Homo sapiens, A2780; wt-p53, platinum sensitive; Table 3
Description: as §1, §2, §3, §4, §5, §6

[5] = Serum protein binding: free Au in fetal bovine serum by ICP-MS; assay type: in vitro ADME; details: 25 μM in FBS, 37 °C, methanolic extracts, up to 100 h
Description: To assess potential drug protein interactions, samples of fetal bovine serum (FBS) were treated with 25 μM 1, 3, and auranofin prior to incubating at 37 °C. Aliquots were taken and the free Au (non-protein bound, methanolic extracts) content was analyzed by ICP-MS (Fig. 6b).
Serum Protein Binding Studies.
aliquots were stored at -80°C.
in an Edvotek microcentrifuge. […] Samples
Detection of ROS by Flow Cytometry.
cells were treated with vehicle only.
g) at 5 °C. […] The pellet was
Control samples of unstained cells,
overnight. […] Post incubation, the media was
After incubation, the dye-
Cells were then imaged fluorescently
Lipoate Inhibition Assays.
well culture plates. […] The next day, appropriate
were added to each well. […] Afterwards, the liquid was then

A549 lung cancer cells [6] = experiment: ICP-MS detection of intracellular Au (cellular uptake)
[7] = A549, ratio of IC50 to that of 1 (Table 2)
[8] = A549 lung cancer cells, MTT, 72 h, read-out: IC50

Structure (SMILES) | IC50 (PC-3 prostate) | Increase in intracellular ROS (fluorescence cell population shift) (A549 cells) | Thermal stabilization of DNA [1] | Inhibition of TrxR at higher concentrations [2] | E 1/2 a (V) DPV [3] | E 1/2 b (V) DPV [3] | IC50 (2780CP ovarian) | Fold less potent than 1 in cell proliferation (A549 lung cancer cells [4]) | Fold difference relative to 1 (A549 lung cancer cells [4]; [7]) | IC50 (A549 lung cancer cells [4]; Homo sapiens, A549, 72 h, A549 lung cancer cells, MTT, 72 h, read-out: IC50) | IC50 (A549 lung cancer cells [4]; Homo sapiens, A549, Table 3, error = standard error from the mean, read-out: IC50 A549 lung) | IC50 (A2780 ovarian) | Intracellular ROS increase, in words (A549 cells) | Inhibition of TrxR at low concentrations [2] | IC50 (A549 lung cancer cells [4]; [8]) | Free Au (non-protein bound) content over time [5] | Increase in intracellular Au concentration as compared to complex 1 (A549 lung cancer cells [6]; A549, regardless of dose) | Intracellular Au levels (uptake), in words (A549 lung cancer cells [6]) | Intracellular Au levels (uptake), in words (A549 lung cancer cells [6]; A549, ICP-MS) | Fold difference relative to 1 (A549 lung cancer cells [4])
Cc1cc(C)c(-n2c[n+](-c3c(C)cc(C)cc3C)c3c2C(=O)c2ccccc2C3=O)c(C)c1 [4[H][Cl], 1,3-dimesitylnaphthoquinimidazolium] | 136 ± 20 nM | ~11 fold | no thermal stabilization | became evident | –0.38 V | –1.15 V | 626 ± 117 nM | ~14 fold | 13.6 | 990 ± 120 nM | 994 ± 120 nM | 159 ± 58 nM |  |  |  |  |  |  |  | 
CC(=O)OC[C@H]1O[C@@H]([S-])[C@H](OC(C)=O)[C@@H](OC(C)=O)[C@@H]1OC(C)=O.CCP(CC)CC.[Au+] [Auranofin, reference compound] |  |  |  |  |  |  |  | 23 fold | 22.9 |  |  |  | minimal or no ROS increase | inhibition of TrxR was apparent | 1670 nM | decreased in a time dependent manner | 2–5 fold |  |  | 
Cc1cc(C)c(-n2c3c(n(-c4c(C)cc(C)cc4C)[c]2=[Au]([Cl])=[c]2n(-c4c(C)cc(C)cc4C)c4c(n2-c2c(C)cc(C)cc2C)C(=O)c2ccccc2C4=O)C(=O)c2ccccc2C3=O)c(C)c1 [Complex 2, [bis(1,3-dimesityl-4,5-naphthoquino-imidazol-2-ylidene)-gold(I)] chloride] |  |  |  |  | –0.46 V | –1.31 V |  |  | 1 |  |  |  |  |  | 75 nM |  |  |  |  | 
Cc1cc(C)c(-n2c3c([n+](-c4c(C)cc(C)cc4C)[c]2[Au-][Cl])C(=O)c2ccccc2C3=O)c(C)c1 [Complex 3, 1,3-dimesityl-4,5-naphthoquino-imidazol-2-ylidene)-gold(I) chloride] |  |  |  | remained inactive | –0.47 V | –1.31 V |  | > 150 fold and 165 fold | 165 |  |  |  | minimal or no ROS increase |  | 12100 nM |  |  | no intracellular Au was detected |  | 
Cc1cc(C)c(-[n+]2ccn(Cc3ccccc3)[c]2[Au-][c]2n(Cc3ccccc3)cc[n+]2-c2c(C)cc(C)cc2C)c(C)c1.[Cl-] [Complex 5, bis(1-benzyl-3-mesityl-imidazol-2-ylidene)-gold(I) chloride, reference compound] |  | ~11 fold |  | became evident |  |  |  | ~10 fold | 9.72 |  |  |  |  |  | 710 nM |  |  |  | identical | 
COc1cccc2c1C(=O)c1c(O)c3c(c(O)c1C2=O)C[C@@](O)(C(=O)CO)C[C@@H]3O[C@H]1C[C@H](N)[C@H](O)[C@H](C)O1 [Doxorubicin, reference compound] |  |  | Significant DNA stabilization | remained inactive |  |  |  |  |  |  |  |  | minimal or no ROS increase | little to no inhibition |  |  |  |  |  | 1.41
